What all share (assay): relative viability (nuclei count vs DMSO), 5 days (fraction); higher = more cells survive
Compound in test [1]: CNC(=O)c1ccccc1Sc1ccc2c(/C=C/c3ccccn3)n[nH]c2c1 [Axitinib] + Cc1cc(Nc2cc(N3CCN(C)CC3)nc(Sc3ccc(NC(=O)C4CC4)cc3)n2)n[nH]1 [Tozasertib] (partner 0.1 µM)
In a few lines:
(§1)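 Relative viability was taken as the ratio of nuclei in treated wells to nuclei in vehicle wells. Lung cancer cell lines in 1536-well plates received compounds by pin tool one day after seeding, either one drug alone or a fixed anchor-drug dose plus five library-drug doses (not always all listed) in √10 steps. Nuclei were counted on 4× images after 5 days of treatment, and values are medians of duplicate plates.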

Compound in test [2]: CNC(=O)c1ccccc1Sc1ccc2c(/C=C/c3ccccn3)n[nH]c2c1 [Axitinib] + NC(=O)Nc1cc(-c2cccc(F)c2)sc1C(=O)N[C@H]1CCCNC1 [AZD7762] (partner 0.2 µM)
The procedure, abridged: as §1

Compound in test [3]: Nc1nc(Nc2ccc3c(c2)CC[C@@H](N2CCCC2)CC3)nn1-c1cc2c(nn1)-c1ccccc1CCC2 [Bemcentinib] + O=C(CCCCCCC(=O)Nc1ccccc1)NO [Vorinostat] (partner 1 µM)
The procedure, abridged: as §1

Compound in test [4]: CNC(=O)c1ccccc1Sc1ccc2c(/C=C/c3ccccn3)n[nH]c2c1 [Axitinib] + Cc1nc(NC(=O)N2CCC[C@H]2C(N)=O)sc1-c1ccnc(C(C)(C)C(F)(F)F)c1 [Alpelisib] (partner 2 µM)
In a few lines:
as §1

For NCI-H650, the relative viability came to 0.714 in test [1] (first compound 0.005 µM); 0.734 in test [1] (first compound 0.01581 µM); 0.699 in test [1] (first compound 0.05 µM); 0.693 in test [1] (first compound 0.1581 µM); 0.78 in test [1] (first compound 0.5 µM); 1.08 in test [2] (first compound 0.005 µM). The relative viability in test [2] (first compound 0.01581 µM) was 0.978; in test [2] (first compound 0.05 µM), 1.08; in test [2] (first compound 0.1581 µM), 1.11; in test [2] (first compound 0.5 µM), 0.862; in test [3] (first compound 0.04 µM), 0.353; in test [3] (first compound 0.1265 µM), 0.442. For the same cell line, the relative viability in test [3] (first compound 0.4 µM) came to 0.378; in test [3] (first compound 1.265 µM) it was 0.374; in test [3] (first compound 4 µM) it was 0.418; in test [4] (first compound 0.005 µM), 1.19; in test [4] (first compound 0.01581 µM), 1.13; in test [4] (first compound 0.05 µM), 0.868. In addition, the relative viability came to 1.02 in test [4] (first compound 0.1581 µM) and 1.24 in test [4] (first compound 0.5 µM).
